The results in this text go back to patent publication US5444042A, “Method of treatment of neurodegeneration with calpain inhibitors” (Cortex Pharmaceuticals, priority 1994, dated 1995).

Each structure is given as a SMILES string. Where a SMILES comes first, the peptide text is derived from it. The star is where a group is joined. Boc = CC(C)(C)OC(=O)*; CH2Cl = ClC* Where only a bound is given, the exact number is not on record here.

One experiment addresses calpain II from rabbit. As to the kind of experiment: Calpain II inhibition, Suc-Leu-Tyr-AMC (Table PKC1). Format: biochemical. As to conditions: 20 mM Hepes, 10 mM CaCl2, 10 mM β-mercaptoethanol, pH 7.2; read-out: Ki CII (Calpain II). How it is done:
(§1) Our discovery of Peptide Keto-Compounds effective as Calpain Inhibitors was made through assay of the Peptide Keto-Compounds as reversible inhibitors. Various concentrations of inhibitors in dimethylsulfoxide (DMSO) were added to the assay mixture, which contained buffer and substrate. The reaction was started by the addition of the enzyme and the hydrolysis rates were followed spectrophotometrically or fluorimetrically. 88 mM KH2 PO4, 12 mM Na2 HPO4, 1.33 mM EDTA, 2.7 mM cysteine, pH 6.0 was used as a buffer for cathepsin B; and 20 mM Hepes, 10 mM CaCl2, 10 mM β-mercaptoethanol, pH 7.2 buffer was utilized for calpain I and calpain II.
(§2) All peptide thioester hydrolysis rates were measured with assay mixtures containing 4,4'-dithiodipyridine [e324=19800 M-1 cm-1; Grasetti & Murray, Arch. Biochem. Biophys. 119, pp 41-49 (1967)]. Papain was assayed with Bz-Arg-AMC or Bz-Arg-NA [Kanaoka et al., Chem. Pharm. Bull. 25, 3126-3128 (1977)], and the AMC (7-amino-4-methylcoumarin) release was followed fluorimetrically (excitation at 380 nm, and emission at 460 nm). Cathepsin B was assayed with Z-Arg-Arg-AFC [Barrett and Kirschke, Methods Enzymol. 80, 535-561 (1981)], and the AFC (7-amino-4-trifluoromethylcoumarin) release was followed fluorimetrically (excitation at 400 nm, and emission at 505 nm). Calpain I from human erythrocytes and calpain II from rabbit were assayed using Suc-Leu-Tyr-AMC [Sasaki et al., J. Biol. Chem. 259, 12489-12494 (1984), hereby incorporated by reference], and the AMC (7-amino-4-methylcoumarin) release was followed fluorimetrically (excitation at 380 nm, and emission at 460 nm). Enzymatic hydrolysis rates were measured at various substrate and inhibitor concentrations, and Ki values were determined by Dixon plot.

Experiment [1] concerns the target T1, Cathepsin B from bovine spleen (Bos taurus, UniProt P07688).
T1 construct: Cathepsin B from bovine spleen was assayed using Z-Lys-4-nitrophenylphosphate as substrate; from tissue; host or cells: bovine spleen
As to the kind of experiment: Cathepsin B Ki (Table 1B(i)). It counts as biochemical. The note with it: substrate Z-Lys-4-nitrophenylphosphate. As to the method: The Peptide Keto-Compounds are reversible inhibitors of Calpains and other thiol proteases. […] Cathepsin B from bovine spleen was assayed using Z-Lys-4-nitrophenylphosphate as substrate.
The Ki value for the inhibition of Calpains and cathepsin B by several Peptide Keto-Compounds are shown in μM (micromolar). The values for leupeptin, which is commercially available from Calbiochem of La Jolla, Calif., are shown for comparison.

Experiment [2] concerns the target T2, Calpain I from human erythrocytes (Homo sapiens, UniProt P07384).
T2 construct: Calpain I from human erythrocytes and calpain II from rabbit were assayed using Suc-Leu-Tyr-AMC; from tissue; host or cells: human erythrocytes
T2 sequence (P07384 1-714): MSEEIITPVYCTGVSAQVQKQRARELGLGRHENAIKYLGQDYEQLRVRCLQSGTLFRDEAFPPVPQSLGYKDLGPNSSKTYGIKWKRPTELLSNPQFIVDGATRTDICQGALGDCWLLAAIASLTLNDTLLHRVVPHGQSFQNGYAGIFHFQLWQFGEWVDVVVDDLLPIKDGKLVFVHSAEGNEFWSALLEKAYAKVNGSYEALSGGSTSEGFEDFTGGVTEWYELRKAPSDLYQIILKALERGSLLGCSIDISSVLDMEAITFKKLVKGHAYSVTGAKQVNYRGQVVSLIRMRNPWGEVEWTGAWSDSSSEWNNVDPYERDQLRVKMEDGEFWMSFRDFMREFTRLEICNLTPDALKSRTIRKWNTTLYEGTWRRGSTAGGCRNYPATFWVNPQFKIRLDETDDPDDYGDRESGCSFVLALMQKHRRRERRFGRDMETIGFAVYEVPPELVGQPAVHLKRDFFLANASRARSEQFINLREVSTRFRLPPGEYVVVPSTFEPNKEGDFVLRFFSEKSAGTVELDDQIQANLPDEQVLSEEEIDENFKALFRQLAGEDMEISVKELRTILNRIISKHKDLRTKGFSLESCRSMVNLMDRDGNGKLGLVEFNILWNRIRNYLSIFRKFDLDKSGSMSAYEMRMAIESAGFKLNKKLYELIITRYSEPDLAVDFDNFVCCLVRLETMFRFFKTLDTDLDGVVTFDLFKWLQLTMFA
T2 sequence (P04632 1-268 partner): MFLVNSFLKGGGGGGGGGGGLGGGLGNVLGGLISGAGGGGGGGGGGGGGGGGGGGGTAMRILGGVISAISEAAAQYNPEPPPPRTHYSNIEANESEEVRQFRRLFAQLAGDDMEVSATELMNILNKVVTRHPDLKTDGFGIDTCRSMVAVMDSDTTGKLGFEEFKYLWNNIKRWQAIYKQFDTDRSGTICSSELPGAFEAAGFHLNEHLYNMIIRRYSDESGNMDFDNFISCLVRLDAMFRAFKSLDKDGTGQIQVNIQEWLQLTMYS
Kind of experiment: Calpain I inhibition, Suc-Leu-Tyr-AMC (Table PKC1). Format: biochemical. The note with it: 20 mM Hepes, 10 mM CaCl2, 10 mM β-mercaptoethanol, pH 7.2; read-out: Ki CI (Calpain I). As to the method: as §1, §2

A further experiment deals with hippocampal slices. Kind of experiment: Hippocampal slice evoked potential recovery after anoxia (Example 7B). Format: cell-based, rat. How it is done:
As in Example 7A, hippocampal slices (400 μm) were prepared from Sprague Dawley rats (6-7 weeks) and maintained in an interface chamber at 35° C. using conventional techniques, i.e. the lower surface of the slice received a constant perfusion (0.5 ml/min) of an artificial cerebrospinal fluid (ACSF), while the upper surface was exposed to a moist atmosphere of O2 :CO2 (95%:5%) exchanged at a rate of 2 L/min. The ACSF medium contains (in mM): NaCl (124), KCl (3), KHPO4 (1.25), MgSO4 (2.5), CaCl2 (3.4), NaHCO3 (26) and D-Glucose (10). Field excitatory post-synaptic responses were recorded from stratum radiatum of CA1b in response to stimulation of Schaffer-commissural fibers in CA1a or CA1c. The depth of the recording electrode was optimized and evoked responses were collected at a rate of one evoked response every 30 seconds.
After establishing a stable baseline of evoked responses (approximately 10 minutes), ACSF containing Calpain Inhibitor was washed into the chamber and slices were incubated for a period of one hour. After incubation, evoked responses were again recorded and the change in the amplitude of the responses from baseline levels was noted. No effect of the inhibitors tested on baseline evoked responses was observed.
For anoxia experiments, incubation in the drug-containing medium was followed by replacement of the O2 :CO2 (95%:5%) atmosphere with N2 :CO2 (95%:5%). Slices were exposed to this anoxic environment until disappearance of the pre-synaptic fiber volley and for two minutes (severe anoxia) longer (total time in anoxic environment approximately 7-8 minutes in control case). Effects of Calpain Inhibitors on the functional recovery of the slices after the anoxic episode were then measured. Recovery of the evoked potential (EPSP) slope and amplitude by the drug treated slices can be compared to control slices to determine the relative efficacy of various Calpain Inhibitors.

[3] abbreviates: Concentration 100, ten minutes anoxia.

By Ki is commonly meant the dissociation constant of the complex between target and ligand, obtained from inhibition or displacement.

Regarding `CCCC(NC(=O)[C@H](CC(C)C)NC(=O)OCc1ccccc1)C(=O)C(=O)OCC` (mixture of isomers) [Z-Leu-Nva-COOEt, Z-Leu-DL-Nva-COOEt], the inhibition constant Ki at calpain II from rabbit worked out at 1.2 µM; in experiment [1] it was 30 µM.

With `CCCCC(NC(=O)C(CC(C)C)NC(=O)OCc1ccccc1)C(=O)C(=O)OCC` (stereo not drawn) [Z-Leu-Nle-COOEt, Z-Leu-NLeu-CO2 Et], the inhibitory constant (Ki) on calpain II from rabbit was 0.18 µM; in experiment [2] it was 0.12 µM; in experiment [1], 18 µM.

Regarding `N=C(N)SCCCOc1oc(=O)c2cc(N)ccc2c1Cl` [NH2 -CiTPrOIC (ACITIC), 7-amino-4-chloro-3-(3-isothiureidopropoxy)isocoumarin], the “% Recovery of synaptic transmission after anoxia” value (shortened to “% Recovery”) in the experiment on hippocampal slices (Concentration 20, ten minutes anoxia) was determined as 60%.

As to `CCOC(=O)C(=O)C(CC)NC(=O)[C@H](C)NC(=O)[C@H](C)NC(=O)OCc1ccccc1` (mixture of isomers) [Z-Ala-Ala-DL-Abu-COOEt, Z-Ala-Ala-DL-Abu-CO2 Et], the figures for the Ki (at calpain II from rabbit; in experiment [2]) were 200 µM and 50 µM, respectively.

With `CC(=O)N[C@@H](CC(C)C)C(=O)N[C@@H](CC(C)C)C(=O)N[C@H](C=O)CCCNC(=N)N` [Leupeptin, Ac-Leu-Leu-Arg-H, reference compound], the affinity in experiment [1] corresponds to a Ki of 6 µM.

In the case of `CCOC(=O)C(=O)[C@H](CC)NC(=O)[C@H](CC(C)C)NC(=O)OCc1ccccc1` (racemic) [Z-Leu-Abu-COOEt, Z-Leu-DL-Abu-COOEt], the inhibition constant (Ki) on calpain II from rabbit came out at 0.4 µM; in experiment [2], 0.04 µM; in experiment [1], 14 µM. In addition, in the experiment with hippocampal slices (setting [3]), the “% Recovery” value is 55%. In the experiment on hippocampal slices (severe anoxia, 2 minutes post fiber volley disappearance), the “recovery of EPSP amplitude from severe anoxia (FIG. 4)” value is “superior to that seen with CI1”.

Regarding `CC(C)CC(NC(=O)CNC(=O)OC(C)(C)C)C(=O)NC(Cc1ccccc1)C(=O)CCl` (stereo not drawn) [Boc-Gly-Leu-Phe-CH2 Cl] (Boc-Gly-Leu-Phe-CH2Cl; configuration not given here), the “% Recovery” value in the experiment with hippocampal slices (Concentration 50, ten minutes anoxia) is 30%.

In the case of `CCOC(=O)C(=O)C(Cc1ccccc1)NC(=O)C(CC(C)C)NC(=O)OCc1ccccc1` (stereo not drawn) [Z-Leu-Phe-COOEt], the Ki on calpain II from rabbit was 0.4 µM; in experiment [2], 0.23 µM; in experiment [1], above 50 µM. Also, in the experiment with hippocampal slices (setting [3]), the “% Recovery” value is 38%. In the experiment on hippocampal slices (hippocampal slices), the “period of anoxia required to produce fiber volley disappearance (FIG. 6)” value is reported as “substantially lengthens the period of exposure to anoxia required to produce FVD”.

Consider `CCC(NC(=O)[C@@H]1CCCN1C(=O)[C@H](C)NC(=O)[C@H](C)NC(=O)CCC(=O)OC)C(=O)C(=O)OC` (mixture of isomers) [MeO-Suc-Ala-Ala-Pro-Abu-COOMe, MeO-Suc-Ala-Ala-Pro-DL-Abu-CO2 Me], for which, in experiment [2], the Ki turned out to be 100 µM.
